Earlier results on five substances are cited in patent EP4470382A1, “PLANT EXTRACT AND METHODS COMPRISING THEREOF” (FUNDACION UNIVERSITARIA SAN ANTONIO (UCAM), priority 2023, dated 2024).

The conditions of the data set: activity registered in BIOPEP for the sequence.

For “RPKHPIKHQGLPQEVLNENLLRF [Isracidin - antiviral, identified in bovine casein hydrolysate, BIOPEP ID 9530]”, the Activity result is recorded as “antiviral”.
Take “SQSKVLPVPQKAVPYPQ [Antioxidative peptide identified in bovine casein hydrolysate, BIOPEP ID 9907]”: the Activity entry is given as “antioxidative”.
Regarding YQKFPQY, the Activity entry is recorded as “ACE inhibitor”.
Consider “LLYQEPVLGPVRGPFPIIV [peptide derived from bovine b-casein (1-28), identified in bovine casein hydrolysate, BIOPEP ID 8174]”, for which the Activity entry was “immunomodulat ing”.
In the case of “VYQHQKAMKPWIQPKTKVIPYVRYL [(fr. 183-207) of bovine alpha s2-casein, identified in bovine casein hydrolysate, BIOPEP ID 5469]”, the Activity result is on record as “antibacterial”.
